Data on five compounds can be found in DBAASP.

Test systems include Escherichia coli K88; Escherichia coli UB1005; Bacillus subtilis 168; Enterococcus faecalis; Escherichia coli O111:B4; Bacillus subtilis; Escherichia coli JJ2489; Escherichia coli JW0013; Escherichia coli BW25113; Escherichia coli J2210; Escherichia coli MC1041.
Common to all, as to assay: ≥ marks a high value that may be exact or a test limit, other limits are often not marked, values filed in µg/mL are converted to µM
Assay [1] concerns Escherichia coli CVCC 1515.
The test system of assay [2] is Staphylococcus aureus ATCC 29213.
Assay [3] deals with Staphylococcus epidermidis ATCC 12228.
Assay [4] deals with Salmonella enterica subsp. enterica serovar Typhimurium ATCC 14028.
Assay [5] concerns Pseudomonas aeruginosa ATCC 27853.
The test system of assay [6] is Escherichia coli ATCC 25922.
For assay [7], the system named is Klebsiella pneumoniae ATCC 13883.
The test system of assay [8] is Staphylococcus epidermidis 1457.
Assay [9] has as its system Staphylococcus aureus UAMS-1.
Assay [10] deals with Staphylococcus aureus USA 200.
In assay [11] the test system is Candida glabrata ATCC 2001.
Assay [12] concerns Staphylococcus aureus USA 400.
Assay [13] deals with Staphylococcus aureus MU50.
Assay [14] concerns Pseudomonas aeruginosa PAO1.
For assay [15], the system named is Candida tropicalis ATCC 13803.
Assay [16] relates to Candida albicans ATCC 10231.
Assay [17] has as its system Staphylococcus aureus Newman.
Assay [18] relates to Salmonella typhimurium C610.
In assay [19] the test system is Staphylococcus aureus K147.
Assay [20] relates to Staphylococcus aureus SAP 0017.
The test system of assay [21] is Pseudomonas aeruginosa H103.
The subject of assay [22] is Staphylococcus epidermidis.
Assay [23] deals with Salmonella enterica subsp. enterica serovar Enteritidis MH91989.
Assay [24] deals with Escherichia coli JW2778 ΔygdD.
Assay [25] deals with Escherichia coli JW0368 ΔsbmA.
Assay [26] deals with Salmonella typhimurium SL1344.
The test system of assay [27] is Bacillus licheniformis ATCC 14580.
Assay [28] relates to Bacillus cereus ATCC 14579.
For assay [29], the system named is Enterococcus faecalis 1F-1.
Assay [30] concerns Bacillus subtilis ATCC 6051.
For assay [31], the system named is Enterococcus faecium 5F-10.
Assay [32] deals with Salmonella enterica ATCC H9812.
Assay [33] relates to Bacillus amyloliquefaciens ATCC 23842.
Assay [34] deals with Proteus mirabilis ATCC 35659.

Converted amounts (≈) assume the structure as drawn. A value given as a limit tells only on which side of the number the result lay.

The MIC is the lowest concentration that inhibits growth of the organism. Regarding `CC(C)C[C@H](NC(=O)[C@H](CC(C)C)NC(=O)[C@H](CCCCN)NC(=O)[C@H](C)NC(=O)[C@H](C)NC(=O)[C@H](C)NC(=O)[C@H](CCCCN)NC(=O)[C@H](C)NC(=O)[C@H](C)NC(=O)[C@H](C)NC(=O)[C@H](CCCCN)NC(=O)[C@H](Cc1c[nH]c2ccccc12)NC(=O)[C@@H](N)CC(C)C)C(N)=O` [LWKAAAKAAAKLL], the minimal inhibitory concentration (MIC) in the assay with Escherichia coli K88 worked out at 4 µM (≈ 5.41 µg/mL); in [1], 8 µM (≈ 10.8 µg/mL); in assay [2], 4 µM (≈ 5.41 µg/mL); in the assay on Escherichia coli UB1005, 8 µM (≈ 10.8 µg/mL); in [3], 4 µM (≈ 5.41 µg/mL); in assay [4], 32 µM (≈ 43.3 µg/mL). Further, the values for the MIC in assay [5] and in assay [6] were 4 µM (≈ 5.41 µg/mL) and 1 µM (≈ 1.35 µg/mL), respectively.

As to `CC[C@H](C)[C@H](NC(=O)[C@H](CCCCN)NC(=O)CNC(=O)[C@H](CC(C)C)NC(=O)[C@@H](NC(=O)[C@H](CO)NC(=O)[C@H](CCCCN)NC(=O)[C@H](CC(C)C)NC(=O)[C@H](Cc1ccccc1)NC(=O)[C@@H]1CCCN1C(=O)[C@H](CC(C)C)NC(=O)[C@@H](N)Cc1ccccc1)[C@@H](C)CC)C(=O)N[C@@H](CC(C)C)C(N)=O` [FLPFLKSILGKIL], the MIC in [7] is at least 50 µM; in assay [8], 1.6 µM (≈ 2.38 µg/mL); in [9], 25 µM (≈ 37.2 µg/mL); in assay [10], 3.1 µM (≈ 4.61 µg/mL); against Bacillus subtilis 168 it was 17.7 µM (≈ 26.3 µg/mL); in assay [11], 12.5 µM (≈ 18.6 µg/mL). The MIC in assay [12] was 1.56 µM (≈ 2.32 µg/mL); in assay [13], 3.1 µM (≈ 4.61 µg/mL); in assay [14] it was above 50 µM; in [15] it was 1.6 µM (≈ 2.38 µg/mL); in assay [6] it was above 50 µM; in assay [16] it was 12.5 µM (≈ 18.6 µg/mL). In [17], this compound showed an MIC of 1.6 µM (≈ 2.38 µg/mL).

On to `CC(C)C[C@H](NC(=O)[C@H](CCCCN)NC(=O)[C@H](CCCCN)NC(=O)[C@H](Cc1ccccc1)NC(=O)[C@H](Cc1ccccc1)NC(=O)[C@H](CO)NC(=O)[C@H](CCCCN)NC(=O)[C@@H](N)CCCCN)C(=O)N[C@H](C(=O)N[C@@H](CO)C(=O)N[C@H](C(=O)N[C@@H](C)C(=O)N[C@@H](CO)C(=O)N[C@@H](CO)C(=O)N[C@H](C(=O)N[C@@H](CC(C)C)C(=O)N[C@@H](CO)C(=O)O)C(C)C)C(C)C)[C@@H](C)O` [KKSFFKKLTSVASSVLS], for which the MIC (in the assay with Enterococcus faecalis; in assay [18]; in [19]; in assay [20]; in assay [21]; in assay [22]) was at least 68.9 µM in each case. The MIC in the assay on Escherichia coli O111:B4 and with Bacillus subtilis was at least 68.9 µM in each case.

Take `CC(C)C[C@H](NC(=O)[C@H](CCCN=C(N)N)NC(=O)[C@@H]1CCCN1C(=O)[C@H](CCCN=C(N)N)NC(=O)[C@@H]1CCCN1C(=O)[C@@H]1CCCN1C(=O)[C@H](CCCN=C(N)N)NC(=O)[C@@H]1CCCN1C(=O)[C@H](CCC(N)=O)NC(=O)[C@@H]1CCCN1C(=O)[C@H](CCCN=C(N)N)NC(=O)[C@H](Cc1ccc(O)cc1)NC(=O)[C@@H](NC(=O)[C@@H]1CCCN1C(=O)[C@H](CCCN=C(N)N)NC(=O)[C@H](CC(N)=O)NC(=O)[C@H](CC(N)=O)NC(=O)CN)C(C)C)C(=O)O` [GNNRPVYRPQPRPPRPRL]: the MIC in the assay with Escherichia coli JJ2489 was 0.126 µM (≈ 0.273 µg/mL); in [23], 0.067 µM (≈ 0.145 µg/mL); in assay [24], 0.126 µM (≈ 0.273 µg/mL); in [25], 0.096 µM (≈ 0.208 µg/mL); against Escherichia coli JW0013, 0.048 µM (≈ 0.104 µg/mL); in the assay with Escherichia coli BW25113 it was 0.062 µM (≈ 0.135 µg/mL). Besides, the values for the minimal inhibitory concentration (MIC) (in assay [26]; in the assay on Escherichia coli J2210; in the assay on Escherichia coli MC1041) were 0.126 µM (≈ 0.273 µg/mL), 0.126 µM (≈ 0.273 µg/mL) and 0.096 µM (≈ 0.208 µg/mL), respectively.

In the case of `CC(C)C[C@H](NC(=O)[C@@H](N)CC(C)C)C(=O)N[C@@H](CO)C(=O)N[C@@H](CCCN=C(N)N)C(=O)N[C@H](C(=O)N[C@@H](CC(=O)O)C(=O)N[C@@H](CCC(=O)O)C(=O)O)C(C)C` [LLSRVDE], the MIC in assay [27] was at least 154 µM; in assay [2], above 154 µM; in assay [28], at least 154 µM; in assay [29] it was at least 154 µM; in assay [30], at least 154 µM; in assay [31], at least 154 µM. The MIC in [14] is above 154 µM; in assay [6], above 154 µM; in [32], at least 154 µM; in [33] it was at least 154 µM; in assay [34] it was at least 154 µM.
